Four molecules from patent publication US20250281564A1, “DYSREGULATION OF NEUROPROTEASOMES BY APOE ISOFORMS DRIVES ENDOGENOUS TAU AGGREGATION” (The Trustees of Columbia University in the City of New York, priority 2022, published 2025) can be followed below.

Residues, ends and D or L forms follow the SMILES beside them. *: point of attachment. Cbz = O=C(OCc1ccccc1)*

In test [1] the test system is endogenous mouse Tau. Kind of test: Sarkosyl fractionation and Tau immunoblot, WT primary cortical neurons. The format is cell-based. To be noted: 1 μM, 12 hours, vs DMSO. An excerpt: (§1) (FIG. 5A) Effect of neuroproteasome-specific inhibitor iBEp on Tau aggregation in primary neurons. […] Quantification of soluble and insoluble murine Tau (mTau) intensities normalized to soluble GAPDH. […] (FIG. 5B) Effect of neuroproteasome inhibition on aggregation of human Tau (hTau). […] (FIG. 5C) Generation of reversible neuroproteasome inhibitors to test effects of neuroproteasome inhibition. (Top) Structure of Sulfo-MG132 (SulfoMG). […] (FIG. 5D) Effect of reversible neuroproteasome inhibition using SulfoMG on Tau aggregation. […] Quantification of soluble and insoluble Tau intensities were normalized to soluble GAPDH. Data (right) are mean±SEM normalized respective to DMSO controls. […] (FIG. 5E) Testing iBEp permeability in vivo. […] 72 hours post injection, hippocampi were isolated and subjected to membrane fractionation without detergent. […] (FIG. 5F) Effect of neuroproteasome inhibition on Tau aggregation in vivo.
On the technique in general: Immunoblotting shows a protein as a band on a membrane.

Test [2] has as its system p62, LC3bI/II, Ulk1. Kind of test: Autophagy marker immunoblot in primary neurons. The format is cell-based, mouse. To be noted: 12 hours, DIV14 WT primary cortical neurons. An excerpt: (FIG. 4A) (Top) Structure of azide-PEG24-epoxomicin handle to enable rapid conjugation of linkers to global proteasome inhibitor epoxomicin using Click chemistry. (Bottom) Structure of Neuroproteasome-specific inhibitor impermeant Biotin-PEG24-Epoxomicin (iBEp). (FIG. 4B) Assessing permeability of iBEp in primary neurons. […] Cytosolic (Cyto) and membrane (Mem) fractions were immunoblotted using indicated antibodies. (FIG. 4C) Proteasome catalytic activity of membrane (Mem) and cytosolic (Cyto) fractions of neurons treated with iBEp. […] Proteasome catalytic activity was assessed by monitoring degradation of Suc-LLVY-AMC; proteasome-dependent cleavage of the substrate increases AMC fluorescence. N=3 biological replicates. **** p<0.0001 by One-Way ANOVA. (FIG. 4D) Primary neurons treated with iBEp probed for autophagy markers. […] Lysates were immunoblotted using indicated antibodies against common autophagy markers. Quantification of p62, LC3b, and Ulk1 intensities normalized to Actin. […] (FIG. 4E) Schematic to analyze changes in sarkosyl-soluble and insoluble proteomes in response to neuroproteasome inhibition. […] Sarkosyl-soluble and insoluble fractions were labeled with Tandem Mass Tags (TMTpro) for quantitative mass spectrometry. (FIG. 4F) Differential enrichment of proteins in the sarkosyl-soluble fraction of neurons treated with iBEp versus DMSO was analyzed and plotted as log 2-fold change vs-log 10 (P-value). Green dots represent proteins enriched in the iBEp treatment compared to DMSO treatment. (FIG. 4G) Graphs plotting the log 2-fold change of select Neuroproteasome substrates enriched in the sarkosyl-soluble fraction from MS analysis in (FIG. 4F) compared to UPS substrates and autophagy markers ** p<0.01 (adjusted p-value after multiple corrections). (FIG. 4H) Differential enrichment of proteins in the sarkosyl-insoluble fraction of neurons treated with iBEp versus DMSO was analyzed and plotted as log 2-fold change vs −log 10 (P-value). Green dots represent proteins enriched in the iBEp treatment compared to DMSO treatment. (FIG. 4I) (Left) Identification of proteins which are exclusively enriched in the insoluble fraction with no corresponding change in the soluble fraction (red). Plk2 represents the only protein which is enriched in the soluble fraction with no corresponding change in the insoluble fraction (green). Proteins plotted as differences in log 2 fold changes. (Right) Graphs plotting the log 2 fold changes of insoluble Tau (top) and soluble Tau (bottom) enriched in neurons treated with iBEp vs DMSO. ** p<0.01 (adjusted p-value after multiple corrections).
FIG. 5A-5G: Neuroproteasomes are differentially regulated by ApoE isoforms to determine formation of endogenous sarkosyl-insoluble Tau inclusions. […]

Test [3] relates to human Tau. Briefly: Sarkosyl fractionation and Tau immunoblot, hTau-KI primary cortical neurons. The class given is cell-based. To be noted: 1 μM, 12 hours, vs DMSO.
Description: as §1

Test [4] relates to Thioflavin S-positive aggregates. Briefly: Thioflavin S staining of hippocampal sections of hTau-KI mice after stereotactic injection. The settings on record: hTau-KI mice, stereotactic, 72 hours.
In test [5] the test system is phosphorylated Tau. Briefly: Immunohistochemistry for phosphorylated Tau (AT8) in hTau-KI mice after stereotactic injection. The settings on record: hTau-KI mice, stereotactic, 72 hours.
In test [6] the target is proteasome (Homo sapiens, UniProt P28072+P28074+Q99436). Kind of test: Efficacy against the proteasome relative to the parent inhibitor. The class given is biochemical. An excerpt: We next tested the potency and selectivity of iBEp relative to Epoxomicin. Epoxomicin covalently and irreversibly binds the catalytic β subunits of the proteasome-therefore, the biotin moiety on iBEp serves as a tracer to detect whether proteasomes are inhibited by monitoring biotin signal on an SDS-PAGE gel (83, 87-89). […] This is supported by previous data that modification of the non-reactive end of epoxomicin has been shown not to change the selectivity of Epoxomicin for the proteasome (83, 87-89). […] We therefore chose doses of inhibitor where the effective concentration of the inhibitor was similar to previous studies using Epoxomicin alone and well within the acceptable range of efficacy given how potent Epoxomicin is as a proteasome inhibitor.
Many of our experiments rely on the use of iBEp because the biotin tracer on an irreversible and specific inhibitor allows us to track which proteasomes are inhibited. However, we wanted to validate our findings using a proteasome inhibitor with a distinct mechanism of action from Epoxomicin. We therefore modified MG132, a reversible peptide aldehyde proteasome inhibitor, with a sulfonated biotin linker on the nonreactive N-terminus (84). […] Instead, we turned to cellular and functional readouts of permeability. […]

Consider `CC[C@H](C)[C@H](NC(=O)[C@H]([C@@H](C)CC)N(C)C(C)=O)C(=O)N[C@H](C(=O)N[C@@H](CC(C)C)C(=O)[C@@]1(C)CO1)[C@@H](C)O` [Epoxomicin, reference compound], for which the “sarkosyl-insoluble Tau, WT neurons” value in test [1] is given as “no change in sarkosyl-insoluble Tau”. In test [2], the LC3bI/II result is given as “little to no change in LC3bI/II” and the p62 levels entry is recorded as “strong induction of p62”. For the same molecule, the “sarkosyl-insoluble Tau, hTau-KI neurons” value in test [3] was “no change in sarkosyl-insoluble Tau”.

Take `CC(C)C[C@@H](C=O)NC(=O)[C@H](CC(C)C)NC(=O)[C@H](CC(C)C)NC(=O)OCc1ccccc1` [MG132, reference compound] (Cbz-Leu-Leu-Leu-aldehyde): in test [3], the “sarkosyl-insoluble Tau, hTau-KI neurons” value was “does not affect the sarkosyl-insoluble accumulation of Tau”.

As for `C[C@@H]1C[C@@H]([C@H](O)CC2CC(=O)NC(=O)C2)C(=O)[C@@H](C)C1` [cycloheximide, reference compound], in test [4], the “ThioS+ staining, co-injection with iBEp vs iBEp alone” value is “complete return to baseline of ThioS+ staining”. The “AT8 staining, co-injection with iBEp vs contralateral iBEp alone” value in test [5] is given as “completely eliminated AT8 staining”.

Take Sulfo-MG132 [SulfoMG]: the “sarkosyl-insoluble Tau, hTau-KI neurons” value in test [3] is listed as “induces similar partitioning of hTau into the sarkosyl-insoluble fraction as iBEp”. In addition, the “efficacy against the proteasome relative to the parent inhibitor” value in test [6] was “significant inhibition of proteasomes using SulfoMG despite the moderate loss of efficacy compared to MG132”.
